Test results reported in US8791098B2 (priority 2008, dated 2014).
Converted amounts (≈) assume the structure as drawn.

Legend:
[1] = molecular target: T1, preassembled microtubules (Sus scrofa, UniProt P02550+P02554); assay: De-polymerization of preassembled microtubules (turbidometry); format: biochemical, porcine; details: drug added after about 5 min polymerization at 37° C., monitored 10 min at 350 nm
T1 construct: Microtubules proteins were purified from porcine brain; from tissue; host or cells: porcine brain
T1 sequence (P02554 whole entry): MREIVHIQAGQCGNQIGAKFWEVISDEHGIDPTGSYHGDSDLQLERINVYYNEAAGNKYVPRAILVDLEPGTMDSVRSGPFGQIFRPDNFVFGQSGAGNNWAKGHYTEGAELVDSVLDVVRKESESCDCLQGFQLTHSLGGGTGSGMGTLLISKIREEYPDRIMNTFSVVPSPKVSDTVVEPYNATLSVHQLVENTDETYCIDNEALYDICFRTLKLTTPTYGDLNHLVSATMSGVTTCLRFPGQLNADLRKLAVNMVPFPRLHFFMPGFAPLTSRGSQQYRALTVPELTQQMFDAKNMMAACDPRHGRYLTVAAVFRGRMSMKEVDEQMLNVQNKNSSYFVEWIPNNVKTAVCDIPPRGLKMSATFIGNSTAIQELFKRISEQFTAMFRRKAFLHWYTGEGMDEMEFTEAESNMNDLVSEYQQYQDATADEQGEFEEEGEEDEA
T1 sequence (P02550 whole entry): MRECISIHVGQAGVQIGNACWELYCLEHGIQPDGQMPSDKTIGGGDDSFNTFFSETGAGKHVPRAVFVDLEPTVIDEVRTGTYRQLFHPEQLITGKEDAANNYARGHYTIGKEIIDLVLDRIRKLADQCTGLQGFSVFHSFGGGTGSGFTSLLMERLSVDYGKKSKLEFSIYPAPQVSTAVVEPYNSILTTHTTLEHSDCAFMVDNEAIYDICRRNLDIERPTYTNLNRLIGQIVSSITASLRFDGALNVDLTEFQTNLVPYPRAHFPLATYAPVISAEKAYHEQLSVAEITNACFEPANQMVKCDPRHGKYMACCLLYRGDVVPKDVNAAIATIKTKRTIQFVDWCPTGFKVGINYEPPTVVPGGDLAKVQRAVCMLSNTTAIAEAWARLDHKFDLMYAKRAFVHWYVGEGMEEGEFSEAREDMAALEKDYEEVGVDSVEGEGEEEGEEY
Experimental: Tubulin purification: Microtubules proteins were purified from porcine brain by using standard procedures that includes three cycles of temperature-dependent polymerization and de-polymerization, as described elsewhere.
Polymerisation assay: Tubulin polymerisation was monitored by using turbidometry assay (lit). Samples (200 μl, 10 μM tubulin) in PEM polymerisation buffer (0.1 M PIPES, pH 6.6, 1 mM EGTA, 1 mM MgSO4, and 1 mM GTP), were rapidly warmed to 37° C. in a water-jacketed cuvette holder of a diode array photometer (Beckman spectrophotometer DU 7500). Absorbance at 350 nm where monitored in the absence and the presence of the drugs.
In order to examine the action of the drug on preassembled microtubules, microtubules proteins were firstly polymerized at 37° C. for approximately 5 min. Then the drug was added, and the stability of the microtubules was measured for further 10 min at 350 nm.

[2] = tested on: L929, A549, SW-480, U937 and HL-60 cell lines; assay: Anti-proliferation MTT assay, comparison over the tested cell lines; format: cell-based
Experimental: A given number of cells were cultivated in 96-well plates with serial dilutions of the drugs up to 100 ng/ml. Tubulysin A is used as a positive control, whereas methanol is used as a negative control. After 5 days of incubation the metabolic activities of the cells were measured using MTT-assay as described under the methods section.

L929 = assay: cells; format: cell-based, mouse; details: Mus musculus; L929, average of two measurements; read-out: IC50
Experimental: Cytotoxicity testing of pretubulysin (AU827), N-desmethyl-pretubulysin (AU816) and Tubulysin A and D was performed as follows: Cells were seeded at 6×10^3 cells per well of 96-well plates in 180 μl complete medium and directly treated with varying concentrations of (pre-)tubulysins diluted in methanol. Each compound was tested in duplicate as well as the internal methanol control. After 5 d incubation, 20 μl of 5 mg/ml MTT (Thiazolyl blue tetrazolium bromide) in PBS was added per well and it was further incubated for 2 h at 37° C. The medium was then discarded and cells were washed with 100 μl PBS before adding 100 μl 2-propanol/10 N HCl (250:1) in order to dissolve formazan granules.
The absorbance at 570 nm was measured using a microplate reader (EL808, Bio-Tek Instruments Inc.), and cell viability was expressed as percentage relative to the respective methanol control. IC50 values were obtained by plotting relative growth inhibition in % against the compound concentration on a logarithmic scale. After sigmoidal curve fitting IC50 values can be determined. The IC50[per ml] are shown in the following table (values represent the average of two measurements): […]

Row | Compound | de-polymerization of preassembled microtubules [1] | potency/toxicity of pre-tubulysin-827 relative to pre-tubulysin-816 [2] | IC50 (L929) [mg/L]
1 | CC[C@H](C)[C@H](NC(=O)[C@H]1CCCCN1C)C(=O)N(C)[C@H](CCc1nc(C(=O)N[C@@H](Cc2ccccc2)C[C@H](C)C(=O)O)cs1)C(C)C [pre-tubulysin-827, pretubulysin] | induced de-polymerization of microtubules at substoichiometric concentrations | 5-10 folds | 0.00387 (≈ 0.00578 µM)
2 | CC[C@H](C)[C@H](NC(=O)[C@H]1CCCCN1C)C(=O)N(C)[C@H](CCc1nc(C(=O)N[C@H](CCC(=O)O)Cc2ccccc2)cs1)C(C)C [pre-tubulysin-816, N-desmethyl-pretubulysin] |  |  | 0.04 (≈ 0.0609 µM)
